Earlier results as cited in patent publication US20200309767A1, “HIGH-THROUGHPUT IMAGING-BASED METHODS FOR PREDICTING CELL-TYPE-SPECIFIC TOXICITY OF XENOBIOTICS WITH DIVERSE CHEMICAL STRUCTURES” (priority 2015, published 2020).
Where a name gives a salt, the structure may show the parent alone. Read-outs that look alike come from different tables or passages of the source.

Legend:
[1] = test system: human proximal tubular cells (PTCs); conditions: cited from earlier work
[2] = test system: lung; conditions: cited from earlier work
[3] = test system: human kidney; conditions: cited from earlier work
[4] = test system: liver; conditions: in vivo; cited from earlier work
[5] = known in vivo group, Toxic / Non-toxic
[6] = known human kidney toxicity flag 1/0

Molecule	Hepatotoxic [4]	PTC Toxicity ([1]; human, in vivo)	PTC-toxic ([1]; human, in vivo)	Nephrotoxic ([3]; in vivo)	Pulmonotoxic ([2]; human, in vivo)	other results
[Cd+2].[Cl-].[Cl-] [Cadmium(II) chloride]	1	–	–	–	–	PTC Toxicity [1, 5]: Toxic; PTC-toxic ([1]; known toxicity flag 1/0): 1; Pulmonotoxic ([2]; known toxicity flag 1/0): 1; Nephrotoxic [3, 6]: 1
N[C@@H](Cc1ccc(O)c(O)c1)C(=O)O [Levodopa]	–	Non-toxic	–	–	–	–
CC(=O)Nc1ccc(O)cc1 [Acetaminophen]	1	Non-toxic	0	1	–	–
C=C(Cl)Cl [Vinylidene chloride]	–	–	–	–	0	–
C[C@H]1C(=O)O[C@@H]2CCN3CC=C(COC(=O)[C@](C)(O)[C@]1(C)O)[C@H]23 [Monocrotaline]	–	–	–	–	0	–
[Bi+3].[Bi+3].[O-2].[O-2].[O-2] [Bismuth(III) oxide]	1	–	–	–	–	PTC Toxicity [1, 5]: Toxic; PTC-toxic ([1]; known toxicity flag 1/0): 1; Nephrotoxic [3, 6]: 1
C[C@@H]1[C@H](O)[C@@H](C)/C=C/C=C/CC/C=C/C=C/C=C/C=C/C(O[C@H]2O[C@H](C)[C@@H](O)[C@H](N)[C@@H]2O)CC2O[C@](O)(CC(O)C(O)CCC(O)CC(O)CC(O)CC(=O)O[C@H]1C)CC(O)C2C(=O)O (some centres unmarked) [Nystatin]	–	–	–	–	0	–
C[C@H](Cn1cnc2c(N)ncnc21)OCP(=O)(O)O [Tenofovir]	0	Toxic	1	1	0	–
OCCOCCOCCO [Triethylene glycol]	–	–	–	–	0	–
NCC(=O)O [Glycine]	0	Non-toxic	0	0	–	–
C[C@]12CCC(=O)C=C1CC[C@@H]1[C@@H]2[C@@H](O)C[C@@]2(C)[C@H]1CC[C@]2(O)C(=O)CO [Hydrocortisone]	0	Non-toxic	0	–	–	–
CN(Cc1cnc2nc(N)nc(N)c2n1)c1ccc(C(=O)N[C@@H](CCC(=O)O)C(=O)O)cc1 [Methotrexate]	–	–	–	–	1	–
C[C@H]1O[C@H](O[C@H]2[C@H](O)[C@@H](O)[C@@H](O[C@H]3[C@H](O)[C@@H](O)C(O)O[C@@H]3CO)O[C@@H]2CO)[C@H](O)[C@@H](O)[C@@H]1N[C@H]1C=C(CO)[C@@H](O)[C@H](O)[C@H]1O (some centres unmarked) [Acarbose]	–	Non-toxic	–	–	–	PTC-toxic ([1]; known toxicity flag 1/0): 0
O=[As]O[As]=O (centres unmarked) [Arsenic(III) oxide]	1	–	–	–	–	PTC Toxicity [1, 5]: Toxic; PTC-toxic ([1]; known toxicity flag 1/0): 1; Nephrotoxic [3, 6]: 1
[K+].[K+].[O]=[Cr](=[O])([O-])[O][Cr](=[O])(=[O])[O-] [Potassium dichromate]	1	Toxic	1	1	–	–
CC1=C2C(=CO[C@H](C)[C@H]2C)C(O)=C(C(=O)O)C1=O [Citrinin]	0	Toxic	1	1	–	–
O=C1CN(/N=C/c2ccc([N+](=O)[O-])o2)C(=O)N1 [Nitrofurantoin]	–	–	–	–	1	–
[Cl][Cu][Cl] [Copper(II) chloride]	1	–	–	–	–	PTC Toxicity [1, 5]: Toxic; PTC-toxic ([1]; known toxicity flag 1/0): 1; Nephrotoxic [3, 6]: 1
COc1ccc(C[C@H](N)C(=O)N[C@H]2[C@@H](O)[C@H](n3cnc4c(N(C)C)ncnc43)O[C@@H]2CO)cc1 [Puromycin]	1	Toxic	1	1	–	–

Molecule	Hepatotoxic [4]	PTC Toxicity ([1]; human, in vivo)	PTC-toxic ([1]; human, in vivo)	Nephrotoxic ([3]; in vivo)	Pulmonotoxic ([2]; human, in vivo)	other results
CC(C)[C@H](N)C(=O)OCCOCn1cnc2c(=O)[nH]c(N)nc21 [Valacyclovir]	1	Non-toxic	0	1	–	–
CC(=O)OCC1=C(C(=O)O)N2C(=O)[C@@H](NC(=O)Cc3cccs3)[C@H]2SC1 [Cephalothin]	0	Toxic	1	1	–	–
OC[C@@H](O)[C@@H](O)[C@H](O)[C@@H](O)CO [D-sorbitol]	–	–	–	–	0	–
[Cl-].[Na+] [Sodium chloride]	–	–	–	–	0	–
O=P1(N(CCCl)CCCl)NCCCO1 (centres unmarked) [Cyclophosphamide]	–	–	–	–	–	Pulmonotoxic ([2]; known toxicity flag 1/0): 1
Nc1ccc(N)cc1 [p-Phenylenediamine]	–	–	–	–	1	–
CN[C@H](CC(C)C)C(=O)N[C@H]1C(=O)N[C@@H](CC(N)=O)C(=O)N[C@H]2C(=O)N[C@H]3C(=O)N[C@H](C(=O)N[C@H](C(=O)O)c4cc(O)cc(O)c4-c4cc3ccc4O)[C@H](O)c3ccc(c(Cl)c3)Oc3cc2cc(c3O[C@@H]2O[C@H](CO)[C@@H](O)[C@H](O)[C@H]2O[C@H]2C[C@](C)(N)[C@H](O)[C@H](C)O2)Oc2ccc(cc2Cl)[C@H]1O [Vancomycin]	1	Non-toxic	0	1	–	–
Hydroxypropyl-β-cyclodextrin	–	–	–	–	0	–
CO[C@H]1/C=C/O[C@@]2(C)Oc3c(C)c(O)c4c(O)c(c(/C=N/N5CCN(C)CC5)c(O)c4c3C2=O)NC(=O)/C(C)=C\C=C\[C@H](C)[C@H](O)[C@@H](C)[C@@H](O)[C@@H](C)[C@H](OC(C)=O)[C@@H]1C [Rifampicin]	1	Toxic	1	1	–	–
CN[C@H](CC(C)C)C(=O)N[C@H]1C(=O)N[C@@H](CC(N)=O)C(=O)N[C@H]2C(=O)N[C@H]3C(=O)N[C@H](C(=O)N[C@H](C(=O)O)c4cc(O)cc(O)c4-c4cc3ccc4O)[C@H](O)c3ccc(c(Cl)c3)Oc3cc2cc(c3O[C@@H]2O[C@H](CO)[C@@H](O)[C@H](O)[C@H]2O[C@H]2C[C@](C)(N)[C@H](O)[C@H](C)O2)Oc2ccc(cc2Cl)[C@H]1O [Vancomycin hydrochloride]	–	–	–	–	0	–
CN(C)C(=N)N=C(N)N [Metformin hydrochloride]	0	–	–	1	–	–
CCCCc1oc2ccccc2c1C(=O)c1cc(I)c(OCCN(CC)CC)c(I)c1.Cl [Amidoarone hydrochloride]	–	–	–	–	–	Pulmonotoxic ([2]; known toxicity flag 1/0): 1
CCC[C@@H]1C[C@@H](C(=O)N[C@@H]([C@H]2O[C@H](SC)[C@H](O)[C@@H](O)[C@H]2O)[C@@H](C)O)N(C)C1 [Lincomycin hydrochloride]	–	–	–	–	0	–
CC(C)Cc1ccc(C(C)C(=O)O)cc1 (centres unmarked) [Ibuprofen]	1	Non-toxic	0	–	–	–
O=C1CC[C@@]2(O)[C@H]3Cc4ccc(O)c5c4[C@@]2(CCN3CC2CC2)[C@H]1O5 [Naltrexone hydrochloride]	–	–	–	–	0	–
C=CC(=C)CCC=C(C)C [β-Myrcene]	–	–	–	–	0	–
Cl[C@H]1[C@H](Cl)[C@@H](Cl)[C@@H](Cl)[C@H](Cl)[C@H]1Cl [Lindane]	0	Non-toxic	0	1	–	–
N[C@@H](Cc1cc(I)c(Oc2ccc(O)c(I)c2)c(I)c1)C(=O)O [Triiodothyronine]	–	Non-toxic	–	–	–	–
CC(=O)C(C)=O [Diacetyl]	–	–	–	–	1	–

Molecule	Hepatotoxic [4]	PTC Toxicity ([1]; human, in vivo)	PTC-toxic ([1]; human, in vivo)	Nephrotoxic ([3]; in vivo)	Pulmonotoxic ([2]; human, in vivo)	other results
Cc1ccnc2c1NC(=O)c1cccnc1N2C1CC1 [Nevirapine]	–	–	–	–	0	–
[Ge+4].[O-2].[O-2] [Germanium(IV) oxide]	0	–	–	–	–	PTC Toxicity [1, 5]: Toxic; PTC-toxic ([1]; known toxicity flag 1/0): 1; Nephrotoxic [3, 6]: 1
CC(=O)N1CCN(c2ccc(OCC3COC(Cn4ccnc4)(c4ccc(Cl)cc4Cl)O3)cc2)CC1 (centres unmarked) [Ketoconazole]	–	–	–	–	0	–
CN(C)[C@@H]1C(O)=C(C(N)=O)C(=O)[C@@]2(O)C(O)=C3C(=O)c4c(O)cccc4[C@@](C)(O)[C@H]3C[C@@H]12 [Tetracycline]	1	Toxic	1	1	–	–
CN(CCCC(=O)c1cccnc1)N=O [NNK]	–	–	–	–	–	Pulmonotoxic ([2]; known toxicity flag 1/0): 1
NC(=O)N1c2ccccc2C=Cc2ccccc21 [Carbamazepine]	–	–	–	–	1	–
C[C@@H]1C[C@H]2[C@@H]3CCC4=CC(=O)C=C[C@]4(C)[C@@]3(F)[C@@H](O)C[C@]2(C)[C@@]1(O)C(=O)CO [Dexamethasone]	0	Non-toxic	0	0	–	–
CCOc1ccc(NC(C)=O)cc1 [Phenacetin]	–	Non-toxic	–	–	–	–
CC(=O)OCC1=C(C(=O)O)N2C(=O)[C@@H](NC(=O)CCC[C@@H](N)C(=O)O)[C@H]2SC1 [Cephalosporin C]	0	Toxic	1	1	–	–
Bleomycin sulfate	–	–	–	–	1	–
CC(O)CCC(=O)c1ccoc1 (centres unmarked) [4-Ipomeanol]	–	–	–	–	–	Pulmonotoxic ([2]; known toxicity flag 1/0): 0
[Cl][Au] [Gold(I) chloride]	1	Toxic	1	1	–	–
C=CC[C@@H]1/C=C(\C)C[C@H](C)C[C@H](OC)[C@H]2O[C@@](O)(C(=O)C(=O)N3CCCC[C@H]3C(=O)O[C@H](/C(C)=C/[C@@H]3CC[C@@H](O)[C@H](OC)C3)[C@H](C)[C@@H](O)CC1=O)[C@H](C)C[C@@H]2OC [Tacrolimus]	0	Toxic	1	1	–	–
CC(O)(CS(=O)(=O)c1ccc(F)cc1)C(=O)Nc1ccc(C#N)c(C(F)(F)F)c1 (centres unmarked) [Bicalutamide]	–	–	–	–	0	–
COc1ccc2[nH]cc(CCNC(C)=O)c2c1 [Melatonin]	–	Non-toxic	–	–	–	–
Cc1cc(C(C)(C)C)c(O)c(C(C)(C)C)c1 [Butylated hydroxytoluene]	–	–	–	–	0	–
COc1cccc2c1cc([N+](=O)[O-])c1c(C(=O)O)cc3c(c12)OCO3 [Aristolochic acid]	1	–	–	–	–	PTC Toxicity [1, 5]: Toxic; PTC-toxic ([1]; known toxicity flag 1/0): 1; Nephrotoxic [3, 6]: 1
CN1COCN(Cc2cnc(Cl)s2)/C1=N\[N+](=O)[O-] [Thiamethoxam]	–	–	–	–	0	–
O=C(Cc1cccs1)N[C@@H]1C(=O)N2C(C(=O)[O-])=C(C[n+]3ccccc3)CS[C@H]12 [Cephaloridine]	0	Toxic	1	1	–	–
